This note sets out measurements from patent publication US8163909B2, “Substituted hydroxyethyl amine compounds as beta-secretase modulators and methods of use” (Amgen Inc., priority 2007, dated 2012).

In general, IC50 refers to the concentration that gives 50% inhibition.

Data set [1] addresses Beta Secretase enzyme (BACE) (Homo sapiens, UniProt P56817). The data set is described as follows: In vitro enzymatic BACE FRET (fluorescence resonance energy transfer) assay.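 Also: fluorescence read after 1 h with 50 nM quenched peptide substrate spanning the BACE cleavage site, in pH 4.2 acetate buffer containing 10% DMSO and nonionic detergent.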 Conditions: read-out: BACE1 FRET assay (IC50). The class given is biochemical.
Data set [2] has as its system Aβ40 in conditioned medium of cells stably expressing Amyloid Precursor Protein (APP). The data set is described as follows: In vitro BACE cell-based assay (Aβ40 in conditioned medium, sandwich ELISA).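 Also: compounds added as a dilution series, secreted peptide quantified by europium time-resolved fluorescence readout, potency fitted from percent of control versus compound concentration.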 As to conditions: Homo sapiens, HEK293, HEK cells; read-out: HEK cell assay (IC50). For orientation: ELISA stands for enzyme-linked immunosorbent assay.
A further data set concerns the target CYP3A4 (CYP3A) (Homo sapiens, UniProt P08684). In words: in vitro. As to conditions: microsomes, pH 7.4.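 Also: inhibition of CYP3A-mediated 1-hydroxymidazolam formation after 10 min incubation with NADPH, quantified by HPLC MS relative to metabolite produced without test compound.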
Data set [3] can be described thus: Microsomal stability assay, rat liver microsomes.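 Also: rat liver microsomes (0.25 mg/mL) with about 1 µM compound plus 1 mM NADPH, pH 7.4, 37 °C for 30 min, parent left measured by LC-MS/MS against 0 min.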 As to conditions: rat liver microsomes. Background: Liver microsomes are vesicles of endoplasmic reticulum, rich in cytochrome P450 enzymes.
A short description of data set [4]: Microsomal stability assay, human liver microsomes.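 Also: pooled human liver microsomes at 0.25 mg/mL with 1 µM compound and NADPH at 37 °C, pH 7.4, for 30 min, unchanged parent quantified by LC-MS/MS against the 0 min sample.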 As to conditions: human liver microsomes.
A further data set concerns the target CYP2D6 (Homo sapiens, UniProt P10635). The data set is described as follows: CYP2D6 inhibition assay (bufuralol, pooled human liver microsomes). Conditions: 2D6 IC50, CYP2D6 inhibition.

A value given as a limit tells only on which side of the number the result lay.

Chain of CYP2D6 (P10635 whole entry): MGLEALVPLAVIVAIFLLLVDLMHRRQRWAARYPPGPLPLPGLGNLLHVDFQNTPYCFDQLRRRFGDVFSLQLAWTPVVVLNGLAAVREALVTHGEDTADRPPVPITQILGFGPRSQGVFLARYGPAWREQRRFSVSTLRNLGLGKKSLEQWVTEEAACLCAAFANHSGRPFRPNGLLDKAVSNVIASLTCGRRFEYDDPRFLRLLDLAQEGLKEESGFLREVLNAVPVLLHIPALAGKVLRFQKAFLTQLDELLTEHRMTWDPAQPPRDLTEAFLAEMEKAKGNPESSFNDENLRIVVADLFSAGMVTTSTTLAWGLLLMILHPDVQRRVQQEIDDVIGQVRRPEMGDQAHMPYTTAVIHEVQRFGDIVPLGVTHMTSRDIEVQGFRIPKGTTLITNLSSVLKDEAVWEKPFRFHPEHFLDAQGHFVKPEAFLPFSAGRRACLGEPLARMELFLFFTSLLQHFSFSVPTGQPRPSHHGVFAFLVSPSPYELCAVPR
Chain of CYP3A4 (CYP3A) (P08684 2-503): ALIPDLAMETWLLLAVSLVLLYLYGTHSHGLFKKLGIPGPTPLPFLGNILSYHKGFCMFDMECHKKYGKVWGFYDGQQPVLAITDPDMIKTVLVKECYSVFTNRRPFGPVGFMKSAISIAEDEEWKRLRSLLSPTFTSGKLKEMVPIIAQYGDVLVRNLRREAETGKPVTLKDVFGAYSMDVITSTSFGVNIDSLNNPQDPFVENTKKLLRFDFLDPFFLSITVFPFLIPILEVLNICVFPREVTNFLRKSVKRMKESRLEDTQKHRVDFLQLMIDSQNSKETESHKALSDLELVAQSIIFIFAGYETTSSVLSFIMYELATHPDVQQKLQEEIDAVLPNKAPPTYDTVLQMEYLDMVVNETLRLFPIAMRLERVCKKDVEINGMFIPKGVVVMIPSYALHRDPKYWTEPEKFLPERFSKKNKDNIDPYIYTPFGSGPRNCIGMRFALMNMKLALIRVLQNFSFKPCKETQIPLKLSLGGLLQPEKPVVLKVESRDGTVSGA
Chain of Beta Secretase enzyme (BACE) (P56817 46-501): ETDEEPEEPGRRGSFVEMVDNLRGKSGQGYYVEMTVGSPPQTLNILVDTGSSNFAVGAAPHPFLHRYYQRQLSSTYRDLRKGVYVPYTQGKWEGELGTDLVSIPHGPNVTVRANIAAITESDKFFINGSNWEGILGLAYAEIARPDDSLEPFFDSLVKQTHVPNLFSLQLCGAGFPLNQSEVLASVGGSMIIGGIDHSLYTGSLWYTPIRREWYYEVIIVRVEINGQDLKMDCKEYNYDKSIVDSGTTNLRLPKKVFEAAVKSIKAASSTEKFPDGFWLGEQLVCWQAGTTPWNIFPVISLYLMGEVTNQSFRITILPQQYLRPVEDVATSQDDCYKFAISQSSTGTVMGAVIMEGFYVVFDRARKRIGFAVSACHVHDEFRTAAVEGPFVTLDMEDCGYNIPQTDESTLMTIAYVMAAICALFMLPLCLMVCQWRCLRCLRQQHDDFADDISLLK

For `CC(=O)N[C@@H](Cc1cc(F)cc(F)c1)[C@H](O)CN[C@H]1CC2(CCC2)Oc2c1cc(CC(C)(C)C)nc2-c1ccncc1` [compound 584], the 50% inhibitory concentration (IC50) in data set [1] worked out at 11 nM; in data set [2], 13 nM; at CYP3A4 (CYP3A), 100 nM; against CYP2D6, 14500 nM. The RLM in data set [3] amounted to 50 µL/min/mg. Also, the HLM in data set [4] amounted to 18 µL/min/mg.

Turning to `CO[C@H](C)C(=O)N[C@@H](Cc1cccc(F)c1)[C@H](O)CN[C@H]1CC2(CCC2)Oc2c(-c3ccncc3)cc(CC(C)(C)C)cc21` [compound 585], the IC50 worked out at 16 nM in data set [1], 12 nM in data set [2], 50 nM against CYP3A4 (CYP3A) and 750 nM against CYP2D6. In data set [3], this compound returned an RLM of 120 µL/min/mg. Besides, the HLM in data set [4] stood at 65.5 µL/min/mg.

In the case of `COCC(=O)N[C@@H](Cc1cc(F)cc(F)c1)[C@H](O)CN[C@H]1CC2(CCC2)Oc2c(-c3ccncc3)cc(CC(C)C)cc21` [compound 586], the concentration for half-maximal inhibition (IC50) amounted to 9 nM in data set [1], 6 nM in data set [2], 100 nM against CYP3A4 (CYP3A) and 1300 nM on CYP2D6. In data set [3], this compound showed an RLM of 65 µL/min/mg. Also, the HLM in data set [4] is 31 µL/min/mg.

Consider `COCC(=O)N[C@@H](Cc1cccc(F)c1)[C@H](O)CN[C@H]1CC2(CCC2)Oc2c1cc(CC(C)(C)F)cc2-n1ccnc1` [compound 588], for which the half-inhibitory concentration (IC50) was found to be 27 nM in data set [1], 6 nM in data set [2], 100 nM at CYP3A4 (CYP3A) and 600 nM at CYP2D6. In data set [3], this compound showed an RLM of 74 µL/min/mg. In data set [4], the HLM turned out to be 25 µL/min/mg.

With `COCC(=O)N[C@@H](Cc1cccc(F)c1)[C@H](O)CN[C@H]1CC2(CCC2)Oc2c1cc(C=C(C)C)cc2-n1ccnc1` [compound 589], the concentration for half-maximal inhibition (IC50) in data set [1] worked out at 257 nM; in data set [2] it was 105 nM; against CYP3A4 (CYP3A), 200 nM; against CYP2D6, 200 nM. Also, in data set [3], the RLM amounted to 217 µL/min/mg. The HLM in data set [4] turned out to be 27 µL/min/mg.

As for `COCC(=O)N[C@@H](Cc1cccc(F)c1)[C@H](O)CN[C@H]1CC2(CCC2)Oc2c1cc([C@@H](O)C(C)(C)C)cc2-n1ccnc1` [compound 593], the IC50 turned out to be 1590 nM in data set [1], 312 nM in data set [2], 100 nM against CYP3A4 (CYP3A) and 1000 nM at CYP2D6. The compound also displayed an RLM in data set [3] of 29 µL/min/mg. In data set [4], this compound displayed an HLM of 14 µL/min/mg.

In the case of `CC(=O)N[C@@H](Cc1cccc(F)c1)[C@H](O)CN[C@H]1CC2(CCC2)Oc2c(-c3ccncc3)cc(Cl)cc21` [compound 595], the IC50 in data set [1] turned out to be 77 nM; in data set [2] it was 51 nM; at CYP3A4 (CYP3A), 100 nM; against CYP2D6 it was 500 nM. Moreover, the RLM in data set [3] came out at 736 µL/min/mg. In data set [4], this compound returned an HLM of 147 µL/min/mg.

On to `COCC(=O)N[C@@H](Cc1cc(F)cc(F)c1)[C@H](O)CN[C@H]1CC2(CCC2)Oc2c1cc(CC(C)(C)C)nc2Nc1ccccc1` [compound 599], for which the IC50 in data set [1] was 18 nM; in data set [2], 395 nM; at CYP3A4 (CYP3A), 6400 nM; at CYP2D6, ≥ 27000 nM. In data set [3], the RLM came out at 125 µL/min/mg. Further, the HLM in data set [4] is 120 µL/min/mg.

Consider `CC(=O)N[C@@H](Cc1ccc(F)c(-c2ccncc2)c1)[C@H](O)CN[C@H]1CC2(CCC2)Oc2ncc(CC(C)(C)C)cc21` [compound 602], for which the half-inhibitory concentration (IC50) was 23 nM in data set [1], 18 nM in data set [2], 160 nM at CYP3A4 (CYP3A) and 400 nM at CYP2D6. This compound showed an RLM in data set [3] of 78 µL/min/mg. This compound yielded an HLM in data set [4] of 124 µL/min/mg.

Regarding `C[C@H](F)C(=O)N[C@@H](Cc1cccc(F)c1)[C@H](O)CN[C@H]1CC2(CCC2)Oc2ncc(CC(C)(F)F)cc21` [compound 608], the IC50 in data set [1] was determined as 8 nM; in data set [2], 16 nM; against CYP3A4 (CYP3A), 4500 nM; against CYP2D6, 12200 nM. In data set [3], this compound came in with an RLM of 183 µL/min/mg. In data set [4], this compound returned an HLM of 232 µL/min/mg.

In the case of `CO[C@H](C)C(=O)N[C@@H](Cc1cccc(F)c1)[C@H](O)CN[C@H]1CC2(CCC2)Oc2c(-c3ccncc3)cc(CC(C)C)cc21` [compound 609], the IC50 in data set [1] amounted to 8 nM; in data set [2] it was 5 nM; at CYP3A4 (CYP3A), 100 nM; at CYP2D6, 2000 nM. For the same compound, the RLM in data set [3] was 137 µL/min/mg. The same compound showed an HLM in data set [4] of 64 µL/min/mg.

With `CC(=O)N[C@@H](Cc1ccc(F)cc1)[C@H](O)CN[C@H]1CC2(CCC2)Oc2c1cc(CC(C)(C)C)nc2Nc1ccccc1` [compound 610], the IC50 in data set [1] is 199 nM; in data set [2], > 10000 nM; at CYP3A4 (CYP3A) it was ≥ 27000 nM; against CYP2D6, ≥ 27000 nM. This compound also displayed an RLM in data set [3] of 213 µL/min/mg. The HLM in data set [4] was 102 µL/min/mg.

Consider `COCC(=O)N[C@@H](Cc1ccccc1)[C@H](O)CN[C@H]1CC2(CCC2)Oc2ccc(C[C@H](C)F)cc21` [compound 611], for which the IC50 came out at 103 nM in data set [1], 116 nM in data set [2], 18400 nM at CYP3A4 (CYP3A) and 1200 nM against CYP2D6. This compound registered an RLM in data set [3] of 775 µL/min/mg. In data set [4], the HLM stood at 644 µL/min/mg.

As to `COCC(=O)N[C@@H](Cc1ccc(F)cc1)[C@H](O)CN[C@H]1CC2(CCC2)Oc2c1cc(CC(C)(C)C)nc2Nc1ccccc1` [compound 612], the 50% inhibitory concentration (IC50) in data set [1] is 210 nM; in data set [2], > 10000 nM; on CYP3A4 (CYP3A), ≥ 27000 nM; at CYP2D6, ≥ 27000 nM. The RLM in data set [3] stood at 245 µL/min/mg. The same compound came in with an HLM in data set [4] of 176 µL/min/mg.

On to `COCC(=O)N[C@@H](Cc1cc(F)cc(-c2ccncc2)c1)[C@H](O)CN[C@H]1CC2(CCC2)Oc2ncc(CC(C)(C)C)cc21` [compound 613], for which the half-inhibitory concentration (IC50) was found to be 20 nM in data set [1], 11 nM in data set [2], 160 nM at CYP3A4 (CYP3A) and 300 nM on CYP2D6. Moreover, the RLM in data set [3] amounted to 142 µL/min/mg. Further, the HLM in data set [4] came to 228 µL/min/mg.

On to `CC(=O)N[C@@H](Cc1cc(F)cc(-c2ccncc2)c1)[C@H](O)CN[C@H]1CC2(CCC2)Oc2ncc(CC(C)(C)C)cc21` [compound 614], for which the concentration for half-maximal inhibition (IC50) in data set [1] stood at 12 nM; in data set [2], 8 nM; against CYP3A4 (CYP3A), 160 nM; on CYP2D6, 400 nM. Besides, the RLM in data set [3] was 107 µL/min/mg. Also, the HLM in data set [4] is 244 µL/min/mg.

For `CC(=O)N[C@@H](Cc1cccc(-n2ccnc2)c1)[C@H](O)CN[C@H]1CC2(CCC2)Oc2ncc(CC(C)(C)C)cc21` [compound 615, N-((1S,2R)-3-(((4′S)-6′-(2,2-dimethylpropyl)-3′,4′-dihydrospiro[cyclobutane-1,2′-pyrano[2,3-b]pyridin]-4′-yl)amino)-2-hydroxy-1-(3-(1H-imidazol-1-yl)benzyl)propyl)acetamide], the half-maximal inhibitory concentration (IC50) stood at 60 nM in data set [1], 7 nM in data set [2], 160 nM on CYP3A4 (CYP3A) and 160 nM at CYP2D6. This compound also registered an RLM in data set [3] of 32 µL/min/mg. This compound also returned an HLM in data set [4] of 59 µL/min/mg.

With `CC(=O)N[C@@H](Cc1cccc(-c2ccncc2)c1)[C@H](O)CN[C@H]1CC2(CCC2)Oc2ncc(CC(C)(C)C)cc21` [compound 616, N-((1S,2R)-3-(((4′S)-6′-(2,2-dimethylpropyl)-3′,4′-dihydrospiro[cyclobutane-1,2′-pyrano[2,3-b]pyridin]-4′-yl)amino)-2-hydroxy-1-(3-(4-pyridinyl)benzyl)propyl)acetamide], the 50% inhibitory concentration (IC50) in data set [1] worked out at 17 nM; in data set [2], 10 nM; on CYP3A4 (CYP3A), 160 nM; on CYP2D6, 300 nM. Also, in data set [3], the RLM worked out at 96 µL/min/mg. This compound also displayed an HLM in data set [4] of 228 µL/min/mg.

For the compound `CC(=O)N[C@@H](Cc1cccc(-c2ccncc2)c1)[C@H](O)CN[C@H]1CC2(CCC2)Oc2ccc(CC(C)(C)C)cc21` [compound 618], the IC50 in data set [1] was determined as 31 nM; in data set [2] it was 38 nM; at CYP3A4 (CYP3A), 160 nM; against CYP2D6, 300 nM. Moreover, in data set [3], the RLM stood at 344 µL/min/mg. The HLM in data set [4] was found to be 413 µL/min/mg.

With `CC(=O)N[C@@H](Cc1ccc(F)c(-c2nccs2)c1)[C@H](O)CN[C@H]1CC2(CCC2)Oc2ncc(CC(C)(C)C)cc21` [compound 621, N-((1S,2R)-3-(((4′S)-6′-(2,2-dimethylpropyl)-3′,4′-dihydrospiro[cyclobutane-1,2′-pyrano[2,3-b]pyridin]-4′-yl)amino)-1-(4-fluoro-3-(1,3-thiazol-2-yl)benzyl)-2-hydroxypropyl)acetamide], the IC50 in data set [1] stood at 1 nM; in data set [2], 10 nM; against CYP3A4 (CYP3A) it was 160 nM; at CYP2D6 it was 900 nM. In addition, the RLM in data set [3] amounted to 64 µL/min/mg. The same compound registered an HLM in data set [4] of 45 µL/min/mg.

Turning to `CC(=O)N[C@@H](Cc1cccc(-c2cccnc2)c1)[C@H](O)CN[C@H]1CC2(CCC2)Oc2ncc(CC(C)(C)C)cc21` [compound 623], the half-inhibitory concentration (IC50) in data set [1] turned out to be 8 nM; in data set [2] it was 6 nM; against CYP3A4 (CYP3A), 160 nM; on CYP2D6, 1300 nM. The compound also came in with an RLM in data set [3] of 601 µL/min/mg. In data set [4], this compound yielded an HLM of 829 µL/min/mg.

Take `CC(=O)N[C@@H](Cc1cc(Br)c2c(c1)OCO2)[C@H](O)CN[C@H]1CC2(CCC2)Oc2ncc(CC(C)(C)F)cc21` [compound 624]: the IC50 in data set [1] came out at 200 nM; in data set [2] it was 81 nM; against CYP3A4 (CYP3A) it was 160 nM; against CYP2D6, 1200 nM. This compound returned an RLM in data set [3] of 150 µL/min/mg. This compound returned an HLM in data set [4] of 48 µL/min/mg.
